# Laboratory results from US6525087B2, “Use of known agonists of the central cannabinoid receptor CB1” (Bayer Aktiengesellschaft, priority 1997, dated 2003).
# Tests used:
# [1] = Hypothermia, agonism testing; type: in vivo; conditions: rat, i.v.
# Description: Five minutes after determination of the basal body temperature via an oesophageal temperature probe, the test substance is administered (i.v.). A control group receives only the solvent for the test substances, likewise i.v. The body temperature is measured 7.5, 15, 30 and 60 minutes after i.v. administration. The group size per dose is 5-7 animals (rats).
# [2] = J. Neurotrauma 1993, 10, 109; cited from earlier work
# [3] = Permanent focal cerebral ischaemia in the rat (MCA-O); type: in vivo; conditions: 2 and 4 h after occlusion, infarct size after 7 days
# Description: Permanent Focal Cerebral Ischaemia in the Rat (MCA-O)
# Under isoflurane anaesthesia, the median cerebral artery is exposed on one side and the latter and its side branches are irreversibly sealed by means of electrocoagulation. As a result of the intervention a cerebral infarct is formed. During the operation, the body temperature of the animal is kept at 37° C. After wound closure and wearing off of the anaesthesia, the animals are again released into their cage. The administration of substances is carried out according to different time schemes and via different administration routes (i.v., i.p.) after occlusion. The infarct size is determined after 7 days. To do this, the brain is removed, worked up histologically and the infarct volume is determined with the aid of a computer-assisted analysis system.
# glutamate release [4] = test: Inhibition of glutamate release (rat hippocampus sections, KCl stimulation); type: cell-based; conditions: 75 mM KCl, ratio S2/S1
# Description: Inhibition of Glutamate Release
# After decapitation of a rat, the skull is opened, and the brain is lifted out and cut through along the median fissure. The hippocampus is exposed, separated from the remaining tissue, cut into 350 μm thick sections and incubated at 37° C. in straining vessels for 60 min. Followed by basal value and stimulation 1 with 75 mM KCl (S 1), the sections are incubated with test substance and then the stimulation with KCl and test substance (S2) is repeated. The glutamate concentration of the samples to be investigated is then measured by means of an enzymatic reaction (GLDH) and fluorometric measurement of NADH. By means of a calibration curve, the glutamate content of the sample is determined, and with knowledge of the protein content the glutamate content/mg of protein can be calculated. The ratio S2/S1 is compared; glutamate release inhibitors reduce this ratio in a concentration-dependent manner.
# [5] = Subdural haematoma in the rat (SDH); type: in vivo; conditions: 2 and 4 h after trauma
# Description: Subdural Haematoma in the Rat (SDH)
# Under anaesthesia, the animals' own blood is injected subdurally on one side. An infarct is formed under the haematoma. Substance administration is carried out according to different time schemes and via different administration routes (i.v., i.p.). The infarct size is determined as described in the model of permanent focal ischaemia in the rat (MCA-O).
# glutamate release [6] = conditions: Brain Res. references; cited from earlier work
# [7] = Brain Res. references; cited from earlier work
# cannabinoid receptor = conditions: cited from earlier work
# [8] = target: T1, rat cannabinoid receptor CB1 (Rattus norvegicus, UniProt P20272); test: CB1 luciferase reporter gene test; type: cell-based; conditions: CHOCB1 reporter cell line, forskolin-stimulated
# T1 construct: contains an open reading frame of 1419 base pairs which corresponds to a protein of 473 amino acids; expressed in transfected cells; host or cells: CHOluc9 reporter cells, stably transfected with plasmid CMV-RH (pRc/CMV)
# Description: CB1 Luciferase Reporter Gene Test
# This construct (plasmid CMV-RH) was employed for transfection experiments.
# Stable Transfection of the CHOluc9 Reporter Cells
# CHOluc9 cells were cultured in 50% Dulbecco's modified Eagle Medium/50% F-12 (DMEM/F12) which contained 10% foetal calf serum (FCS). Transfections were prepared in 6-well plates. 7.5 μg of Qiagen-purified CMV-RH plasmid DNA were added per 10^5 cells with the DOTAP transfections system, corresponding to the experimental protocol of the manufacturer (Boehringer Mannheim). Transfected cells were selected with 1 mg/ml G418 and individual clones were obtained by limiting dilution on 96-well plates. Cell lines which express the cannabinoid receptor were identified in the presence of forskolin for the inhibition of reporter gene expression after incubation with the cannabinoid receptor agonist, WIN-55,2121-2. Several stably transfected and subcloned cell lines were further characterized by means of RT-PCR, as described under 1.
# Test Optimization and Pharmacological Characterization of the CHOCB1 Reporter Cell Line
# The following test protocol was used for pharmacological characterization of the cells and for robot-assisted substance screening: the stock cultures were cultured in 50% Dulbecco's modified Eagle Medium/50% F-12 (DMEM/F12) with 10% FCS at 37° C. under 10% CO2 and in each case split 1:10 after 2 to 3 days. […]
# rat cortex membranes = target: T2, rat cortex membranes (Rattus norvegicus, UniProt P20272); test: Binding studies on rat cortex membranes
# T2 construct: Membrane protein is prepared from different tissues or from cells by standard methods; from tissue; host or cells: rat cortex membranes
# Description: Binding Studies on Rat Cortex Membranes
# Membrane protein is prepared from different tissues or from cells by standard methods. Buffer, labelled ligands, DMSO or test substance are pipetted together, then 100 μg of protein are added, and the mixture is well mixed and incubated in a water bath at 30° C. for 60 min. After expiry of the incubation time, the reaction is stopped by addition of ice-cold incubation buffer to each tube. After filtering off, washing is carried out with ¾ ml of incubation buffer. The filters are transferred to minivials and the radioactivity is determined in a liquid scintillation counter.
# T1 sequence (P20272 whole entry): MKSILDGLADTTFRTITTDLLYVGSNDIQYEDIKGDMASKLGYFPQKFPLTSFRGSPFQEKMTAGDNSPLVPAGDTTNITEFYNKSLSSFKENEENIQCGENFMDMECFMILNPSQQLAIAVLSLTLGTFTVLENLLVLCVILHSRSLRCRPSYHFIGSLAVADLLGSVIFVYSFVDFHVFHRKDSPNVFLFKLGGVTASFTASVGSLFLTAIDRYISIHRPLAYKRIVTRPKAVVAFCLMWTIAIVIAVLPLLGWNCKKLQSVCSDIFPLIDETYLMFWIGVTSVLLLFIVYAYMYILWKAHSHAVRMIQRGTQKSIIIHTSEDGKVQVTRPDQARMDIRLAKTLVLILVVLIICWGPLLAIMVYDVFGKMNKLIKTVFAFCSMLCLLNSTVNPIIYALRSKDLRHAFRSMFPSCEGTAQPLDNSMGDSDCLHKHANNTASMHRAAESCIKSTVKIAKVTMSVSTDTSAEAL
# T2 sequence (P20272 whole entry): as above
smiles,measurement,setting,value
CCCCCCC(C)(C)c1ccc([C@@H]2C[C@H](O)CC[C@H]2CCCO)c(O)c1 [Example 15],Hypothermia ED−1°C. (necessary dose to achieve a maximum temperature drop of 1° C.),[1],0.03 mg/kg i.v.
CCCCCCC(C)(C)c1cc(O)c2c(c1)OC(C)(C)[C@@H]1CC=C(CO)C[C@@H]21 [HU210],neuroprotection in a craniocerebral trauma model,[2],non-neuroprotective
Cc1c(C(=O)c2cccc3ccccc23)c2cccc3c2n1[C@H](CN1CCOCC1)CO3 [Example 18],% reduction in the infarct volume,[3]; 0.03 mg/kg i.v. bolus directly,20%
same,Hypothermia ED−1°C. (necessary dose to achieve a maximum temperature drop of 1° C.),[1],0.2 mg/kg i.v.
same,inhibition at 1 µM,glutamate release [4],50%
CCCCCc1cc(O)c2c(c1)OC(C)(C)[C@@H]1CCC(C)=C[C@@H]21 [Example 1],% reduction in the infarct volume,[3]; 1.0 mg/kg i.v. bolus directly,31%
same,% reduction in the infarct volume,[5]; 0.3 mg/kg i.v. bolus directly,50%
same,Hypothermia ED−1°C. (necessary dose to achieve a maximum temperature drop of 1° C.),[1],0.8 mg/kg i.v.
same,"Inhibition of glutamate release, % Inhibition @ 1 μM",glutamate release [4],no effect
Cn1c(=O)c2[nH]cnc2n(C)c1=O [theophylline],inhibition of glutamate release in vitro,glutamate release [6],markedly inhibit glutamate release
same,neuroprotective action in vivo,[7],no neuroprotective action
O=C(O)c1cc(=O)c2ccccc2[nH]1 [kynurenic acid],inhibition of glutamate release in vitro,glutamate release [6],markedly inhibit glutamate release
CCCCCCC(C)(C)c1cc(O)c2c(c1)OC(C)(C)[C@H]1CC=C(CO)C[C@H]21 [HU-211],activity on the cannabinoid receptor,cannabinoid receptor,inactive
CCCCCCC(C)(C)c1cc(O)c2c(c1)OC(C)(C)[C@@H]1CC=C(CO)C[C@@H]21 [Example 5],IC50,[8],0.48 nM
same,Ki,rat cortex membranes,1 nM
same,% reduction in the infarct volume,[3]; 0.01 mg/kg i.v. bolus directly,48%
same,% reduction in the infarct volume,[5]; 0.001 mg/kg i.v. bolus directly,58%
same,Hypothermia ED−1°C. (necessary dose to achieve a maximum temperature drop of 1° C.),[1],0.01 mg/kg i.v.
same,inhibition at 1 µM,glutamate release [4],20%
